A short description of series [1]: Safety and tolerability of repeated doses 5-30 mg (Example 2). Type of series: in vivo, human. The text has this: Safety and tolerability of VB-201 was judged by evaluating the incidence of abnormal findings in the following measurements: vital signs: systolic and diastolic blood pressure, heart rate, respiratory rate, body temperature; physical examination; 12-lead electrocardiogram; laboratory tests of blood samples for: complete blood count, prothrombin time/partial thromboplastin time, LDL- and HDL-cholesterol, total cholesterol, triglycerides, glucose, blood urea nitrogen, sodium, potassium, creatinine, calcium, phosphorus, creatinine phosphokinase, lactate dehydrogenase, aspartate transaminase, alanine transaminase, γ-glutamyl transferase, alkaline phosphatase, protein, albumin, total bilirubin, total IgM and IgG antibodies, interleukin-12/23 p40, tumor necrosis factor-α, and interleukin-6, as well as routine urinalysis; and all adverse events, whether or not considered serious, and whether or not considered related to the investigational agent, according to the criteria for Good Clinical Practice. Treatment-emergent adverse events were defined as any adverse event that started on or after administration of the first dose of VB-201, and no more than 30 days after administration of the last dose, or are ongoing at the time of the first dose and worsened in severity or frequency during treatment. […] The subjects were all healthy volunteers. […] 10 subjects received a placebo. […]

In series [2] the test system is adjuvant-induced arthritis. Conditions: in vivo animal model; cited from earlier work.

As for `CCCCCCCCCCCCCCCCOCC(COP(=O)([O-])OCC[N+](C)(C)C)OCCCCC(=O)O` (stereo not drawn) [VB-201, 1-hexadecyl-2-(4′-carboxybutyl)-glycerol-3-phosphocholine], the “serious or severe adverse events” value in series [1] (daily 5-30 mg, 14 days) is recorded as “No serious or severe adverse events occurred”. Besides, the safety and tolerability result in series [1] (orally for 14 days at daily doses 5 mg to 30 mg) is “as safe and tolerable as placebo”. For the same molecule, the “efficacy in adjuvant-induced arthritis” value in series [2] was “effective”.

Source of the values: US20130172294A1, “Treatment with VB-201” (Vascular Biogenics Ltd., priority 2010, published 2013).
